The term IC50 denotes the concentration at which inhibition is half-maximal.

Structures can show the parent of a compound that is named as a salt.

Assay type in all cases: biochemical
One assay addresses T1, AKT1 (Homo sapiens, UniProt P31749).
T1 construct: purchased SignalChem
Briefly: AKT Kinase Assay (IMAP fluorescent polarisation) vs AKT1. Particulars: activated AKT1, FAM Crosstide substrate. Summed up:
(§1)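 IC50 values came from non-linear regression of % inhibition relative to vehicle, measured by IMAP fluorescence polarisation (485/528 nm) after a 1 h room-temperature reaction of FAM-Crosstide and ATP. Each activated isoform was first exposed to compound for 45 min across fourteen half-log doses.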

A further assay has as its target T2, AKT2 (Homo sapiens, UniProt P31751).
T2 construct: purchased SignalChem
Briefly: AKT Kinase Assay (IMAP fluorescent polarisation) vs AKT2. As to conditions: activated AKT2, FAM Crosstide substrate. Summed up:
as §1

The next assay deals with T3, AKT3 (Homo sapiens, UniProt Q9Y243).
T3 construct: purchased SignalChem
T3 sequence (Q9Y243 whole entry): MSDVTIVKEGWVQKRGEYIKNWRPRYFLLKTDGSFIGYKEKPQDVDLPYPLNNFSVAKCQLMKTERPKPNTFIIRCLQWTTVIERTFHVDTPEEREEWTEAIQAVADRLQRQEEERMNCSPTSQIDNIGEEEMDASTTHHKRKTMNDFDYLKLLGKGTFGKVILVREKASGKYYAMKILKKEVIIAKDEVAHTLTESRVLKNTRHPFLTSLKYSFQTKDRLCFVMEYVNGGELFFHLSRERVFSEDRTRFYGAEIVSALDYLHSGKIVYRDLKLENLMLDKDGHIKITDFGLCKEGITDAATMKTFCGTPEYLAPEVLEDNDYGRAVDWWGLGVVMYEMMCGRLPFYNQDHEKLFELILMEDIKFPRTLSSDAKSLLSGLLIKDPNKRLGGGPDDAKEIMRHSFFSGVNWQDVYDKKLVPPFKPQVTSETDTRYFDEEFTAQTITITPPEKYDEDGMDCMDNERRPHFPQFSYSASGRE
Briefly: AKT Kinase Assay (IMAP fluorescent polarisation) vs AKT3. Particulars: activated AKT3, FAM Crosstide substrate. The procedure, abridged: as §1

T1 sequence (P31749 whole entry): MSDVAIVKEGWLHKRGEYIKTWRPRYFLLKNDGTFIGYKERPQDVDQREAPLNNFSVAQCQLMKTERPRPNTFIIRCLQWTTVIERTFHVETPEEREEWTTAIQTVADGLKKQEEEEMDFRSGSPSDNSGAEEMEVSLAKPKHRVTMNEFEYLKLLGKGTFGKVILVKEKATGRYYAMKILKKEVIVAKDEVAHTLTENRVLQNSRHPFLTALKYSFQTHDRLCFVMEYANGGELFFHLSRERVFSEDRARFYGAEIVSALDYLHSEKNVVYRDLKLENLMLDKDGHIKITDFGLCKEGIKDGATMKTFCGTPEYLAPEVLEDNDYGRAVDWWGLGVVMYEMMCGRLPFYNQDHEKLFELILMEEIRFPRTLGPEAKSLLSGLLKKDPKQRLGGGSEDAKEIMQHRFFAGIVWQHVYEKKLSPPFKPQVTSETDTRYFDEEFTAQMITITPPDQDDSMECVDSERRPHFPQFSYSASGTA
T2 sequence (P31751 whole entry): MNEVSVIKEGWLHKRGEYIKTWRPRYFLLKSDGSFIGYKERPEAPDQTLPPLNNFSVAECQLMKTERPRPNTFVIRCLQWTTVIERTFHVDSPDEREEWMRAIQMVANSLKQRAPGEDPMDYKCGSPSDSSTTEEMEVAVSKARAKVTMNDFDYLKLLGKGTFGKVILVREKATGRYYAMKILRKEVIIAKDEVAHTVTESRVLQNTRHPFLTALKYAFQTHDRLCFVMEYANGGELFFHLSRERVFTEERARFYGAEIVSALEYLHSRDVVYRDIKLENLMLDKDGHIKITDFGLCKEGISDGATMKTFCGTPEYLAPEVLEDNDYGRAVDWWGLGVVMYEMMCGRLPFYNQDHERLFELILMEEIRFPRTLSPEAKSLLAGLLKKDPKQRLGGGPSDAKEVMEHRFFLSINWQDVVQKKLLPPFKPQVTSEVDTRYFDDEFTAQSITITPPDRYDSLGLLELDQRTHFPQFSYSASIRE

Consider `NC1(c2ccc(-c3c(-c4ccccc4)oc4c(-n5cnnc5)nccc4c3=O)cc2)CCC1` [Example 102, 3-[4-(1-Amino-cyclobutyl)-phenyl]-2-phenyl-8-[1,2,4]triazol-4-yl-pyrano[2,3-c]pyridin-4-one hydrochloride], for which the IC50 at AKT1 was no more than 1000 nM; on AKT2 it was 1000 to 10000 nM; on AKT3 it was greater than 10000 nM.
For the compound `NC1(c2ccc(-c3c(-c4ccccc4)oc4c(Oc5ccccn5)nccc4c3=O)cc2)CCC1` [Example 103, 3-[1-(1-Amino-cyclobutyl)-phenyl]-2-phenyl-8-(pyridin-2-yloxy)-pyrano[2,3-c]pyridin-4-one hydrochloride], the values for the IC50 on AKT1, on AKT2 and on AKT3 were no more than 1000 nM, 1000 to 10000 nM and greater than 10000 nM, respectively.
Taken in the same sequence, the figures for `NC1(c2ccc(-c3c(-c4ccccc4)oc4c(-n5ccccc5=O)nccc4c3=O)cc2)CCC1` [Example 104, 3-[4-(1-Amino-cyclobutyl)-phenyl]-8-(2-oxo-2H-pyridin-1-yl)-2-phenyl-pyrano[2,3-c]pyridin-4-one hydrochloride] were 1000 to 10000 nM, greater than 10000 nM and greater than 10000 nM.
Taken in the same sequence, the figures for `C#Cc1cccc2c(=O)c(-c3ccc(C4(N)CCC4)cc3)c(-c3ccccc3)oc12` [Example 105, 3-[4-(1-Amino-cyclobutyl)-phenyl]-8-ethynyl-2-phenyl-chromen-4-one] were no more than 1000 nM, 1000 to 10000 nM and 1000 to 10000 nM.
Taken in the same sequence, the figures for `NC1(c2ccc(-c3c(-c4ccccc4)oc4c(-c5c[nH]nn5)cccc4c3=O)cc2)CCC1` [Example 106, 3-[4-(1-Amino-cyclobutyl)-phenyl]-2-phenyl-8-(1H-[1,2,3]triazol-4-yl)-chromen-4-one] were no more than 1000 nM, no more than 1000 nM and no more than 1000 nM.
In the case of `NC1(c2ccc(-c3c(-c4ccccc4)oc4c(C(=O)O)cccc4c3=O)cc2)CCC1` [Example 107, 3-[4-(1-Amino-cyclobutyl)-phenyl]-4-oxo-2-phenyl-4H-chromene-8-carboxylic acid. trifluoro-acetic acid], the IC50 is 1000 to 10000 nM on AKT1, greater than 10000 nM at AKT2 and greater than 10000 nM on AKT3.
Take `NC1(c2ccc(-c3c(-c4ccccc4)oc4c(CN5CC(F)C5)cccc4c3=O)cc2)CCC1` [Example 108, 3-[4-(1-Amino-cyclobutyl)-phenyl]-8-(3-fluoro-azetidin-1-ylmethyl)-2-phenyl-chromen-4-one]: the 50% inhibitory concentration (IC50) at AKT1 is 1000 to 10000 nM; on AKT2, no more than 1000 nM; on AKT3, greater than 10000 nM.
For `NC1(c2ccc(-c3c(-c4ccccc4)oc4c5c(ccc4c3=O)OCC(=O)N5)cc2)CCC1` [Example 109, 8-(4-(1-aminocyclobutyl)phenyl)-9-phenylchromeno[7,8-b][1.4]oxazine-2,7(1H,3H)-dione], in that order: no more than 1000 nM, 1000 to 10000 nM and 1000 to 10000 nM.
`N#CCOc1ccc2c(=O)c(-c3ccc(C4(N)CCC4)cc3)c(-c3ccccc3)oc2c1Br` [Example 110, 2-(3-(4-(1-aminocyclobutyl)phenyl)-8-bromo-4-oxo-2-phenyl-4H-chromen-7-yloxy)acetonitrile]: the values for the IC50 on AKT1, at AKT2 and on AKT3 were no more than 1000 nM, 1000 to 10000 nM and 1000 to 10000 nM, respectively.
Take `N#CCn1ncc2ccc3c(=O)c(-c4ccc(C5(N)CCC5)cc4)c(-c4ccccc4)oc3c21` [Example 111, 2-(7-(4-(1-aminocyclobutyl)phenyl)-6-oxo-8-phenylpyrano[3,2-g]indazol-1(6H)-v1)acetonitrile]: the results for the IC50 on AKT1, at AKT2 and on AKT3 were no more than 1000 nM, 1000 to 10000 nM and 1000 to 10000 nM, respectively.
Regarding `CN1C(=O)COc2c1ccc1c(=O)c(-c3ccc(C4(N)CCC4)cc3)c(-c3ccccc3)oc21` [Example 112, 8-(4-(1-aminocyclobutyl)phenyl)-4-methyl-9-phenylchromeno[8,7-b][1,4]oxazine-3,7(2H,4H)-dione], the IC50 on AKT1 is no more than 1000 nM; on AKT2, no more than 1000 nM; on AKT3 it was 1000 to 10000 nM.
Regarding `NC1(c2ccc(-c3c(-c4ccccc4)oc4c(-c5ccc(C6(N)CCC6)cc5)nccc4c3=O)cc2)CCC1` [Example 113, 3,8-bis(4-(1-aminocyclobutyl)phenyl)-2-phenyl-4H-pyrano[2,3-c]pyridin-4-one], the IC50 on AKT1 is no more than 1000 nM; on AKT2, greater than 10000 nM; on AKT3, greater than 10000 nM.
For the compound `NC1(c2ccc(-c3c(-c4ccccc4)oc4c(-n5ccnc5)nccc4c3=O)cc2)CCC1` [Example 114, 3-(4-(1-aminocyclobutyl)phenyl)-8-(1H-imidazol-1-yl)-2-phenyl-4H-pyrano[2,3-c]pyridin-4-one], the IC50 is no more than 1000 nM on AKT1, 1000 to 10000 nM at AKT2 and greater than 10000 nM on AKT3.
Consider `Cc1nn(C)c(C)c1-c1nccc2c(=O)c(-c3ccc(C4(N)CCC4)cc3)c(-c3ccccc3)oc12` [Example 115, 3-(4-(1-aminocyclobutyl)phenyl)-2-phenyl-8-(1,3,5-trimethyl-1H-pyrazol-4-yl)-4H-pyrano[2,3-c]pyridin-4-one], for which the IC50 was greater than 10000 nM on AKT1, 1000 to 10000 nM on AKT2 and greater than 10000 nM on AKT3.
Regarding `Cc1c(-c2nccc3c(=O)c(-c4ccc(C5(N)CCC5)cc4)c(-c4ccccc4)oc23)cnn1C` [Example 116, 3-(4-(1-aminocyclobutyl)phenyl)-8-(1,5-dimethyl-1H-pyrazol-4-yl)-2-phenyl-4H-pyrano[2,3-c]pyridin-4-one], the IC50 at AKT1 was no more than 1000 nM; at AKT2, 1000 to 10000 nM; on AKT3, 1000 to 10000 nM.
`CC(C)Cn1cc(-c2nccc3c(=O)c(-c4ccc(C5(N)CCC5)cc4)c(-c4ccccc4)oc23)cn1` [Example 117, 3-(4-(1-aminocyclobutyl)phenyl)-8-(1-isobutyl-1H-pyrazol-4-0)-2-phenyl-4H-pyrano[2,3-c]pyridin-4-one]: the IC50 is no more than 1000 nM at AKT1, no more than 1000 nM at AKT2 and 1000 to 10000 nM at AKT3.
As for `COc1ccccc1-c1nccc2c(=O)c(-c3ccc(C4(N)CCC4)cc3)c(-c3ccccc3)oc12` [Example 118, 3-(4-(1-aminocyclobutyl)phenyl)-8-(2-methoxyphenyl)-2-phenyl-4H-pyrano[2,3-c]pyridin-4-one], the IC50 on AKT1 is no more than 1000 nM; on AKT2, 1000 to 10000 nM; at AKT3, 1000 to 10000 nM.
For the compound `CS(=O)(=O)c1ccccc1-c1nccc2c(=O)c(-c3ccc(C4(N)CCC4)cc3)c(-c3ccccc3)oc12` [Example 119, 3-(4-(1-aminocyclobutyl)phenyl)-8-(2-(methylsulfonyl)phenyl)-2-phenyl-4H-pyrano[2,3-c]pyridin-4-one], the IC50 at AKT1 was 1000 to 10000 nM; at AKT2, 1000 to 10000 nM; at AKT3, greater than 10000 nM.
With `Cc1nccc2c(=O)c(-c3ccc(C4(N)CCC4)cc3)c(-c3ccccc3)oc12` [Example 120, 3-(4-(1-aminocyclobutyl)phenyl)-8-methyl-2-phenyl-4H-pyrano[2,3c]pyridin-4-one], the IC50 at AKT1 is 1000 to 10000 nM; at AKT2, 1000 to 10000 nM; on AKT3, greater than 10000 nM.
With `NC1(c2ccc(-c3c(-c4ccccc4)oc4c(-c5cccc(F)c5C(=O)O)nccc4c3=O)cc2)CCC1` [Example 121, 2-(3-(4-(1-aminocyclobutyl)phenyl)-4-oxo-2-phenyl-4H-pyrano[2,3-c]pyridin-8-yl)-6-fluorobenzoic acid], the IC50 at AKT1 is 1000 to 10000 nM; on AKT2 it was greater than 10000 nM; on AKT3 it was greater than 10000 nM.
As to `N#Cc1cccc(-c2nccc3c(=O)c(-c4ccc(C5(N)CCC5)cc4)c(-c4ccccc4)oc23)c1` [Example 122], the values for the IC50 on AKT1, at AKT2 and at AKT3 were no more than 1000 nM, no more than 1000 nM and greater than 10000 nM, respectively.
As to `NC1(c2ccc(-c3c(-c4ccccc4)oc4c(-c5cccnc5)nccc4c3=O)cc2)CCC1` [Example 123, 3-(4-(1-aminocyclobutyl)phenyl)-2-phenyl-8-(pyridin-3-yl)-4H-pyrano[2,3-c]pyridin-4-one hydrochloride], the IC50 on AKT1 is no more than 1000 nM; on AKT2 it was no more than 1000 nM; on AKT3, 1000 to 10000 nM.
As for `NC1(c2ccc(-c3c(-c4ccccc4)oc4c(-c5ccccc5)nccc4c3=O)cc2)CCC1` [Example 124, 3-(4-(1-aminocyclobutyl)phenyl)-2,8-diphenyl-4H-pyrano[2,3-c]pyridin-4-one], the figures for the IC50 at AKT1, on AKT2 and on AKT3 were no more than 1000 nM, 1000 to 10000 nM and 1000 to 10000 nM, respectively.
Consider `NC1(c2ccc(-c3c(-c4ccccc4)oc4c(OCCO)nccc4c3=O)cc2)CCC1` [Example 125, 3-(4-(1-aminocyclobutyl)phenyl)-8-(2-hydroxyethoxy)-2-phenyl-4H-pyrano[2,3-c]pyridin-4-one], for which the IC50 on AKT1 was no more than 1000 nM; at AKT2, 1000 to 10000 nM; at AKT3, greater than 10000 nM.
Taken in the same sequence, the figures for `NC1(c2ccc(-c3c(-c4ccccc4)oc4c(C5CC5)nccc4c3=O)cc2)CCC1` [Example 126, hydrochloride] were no more than 1000 nM, 1000 to 10000 nM and greater than 10000 nM.
For `N#Cc1nccc2c(=O)c(-c3ccc(C4(N)CCC4)cc3)c(-c3ccccc3)oc12` [Example 127, 3-(4-(1-aminocyclobutyl)phenyl)-4-oxo-2-phenyl-4H-pyrano[2,3-c]pyridine-8-carbonitrile], the IC50 was no more than 1000 nM on AKT1, 1000 to 10000 nM on AKT2 and greater than 10000 nM at AKT3.
Take `CCc1nccc2c(=O)c(-c3ccc(C4(N)CCC4)cc3)c(-c3ccccc3)oc12` [Example 128, 3-(4-(1-aminocyclobutyl)phenyl)-8-ethyl-2-phenyl-4H-pyrano[2,3-c]pyridin-4-one]: the IC50 on AKT1 was no more than 1000 nM; at AKT2, 1000 to 10000 nM; on AKT3, greater than 10000 nM.

These data come from patent US8546376B2, “Pharmaceutical compounds” (Almac Discovery Limited, priority 2009, dated 2013).
